Consider 2 molecules from ChEMBL document CHEMBL1140537, “DNA cleavage by photolysis of aryl sulfoxides” (Bioorg Med Chem Lett, 2007).

The source made the active and inactive calls. The calls are words filed in the database; no cut-off is given here.

The species named for assay [1] is Homo sapiens. Description: Cleavage of DNA at 360 uM.
The species named for assay [2] is Homo sapiens. Description: Cleavage of DNA at 180 uM in anaerobic condition.
The species named for assay [3] is Homo sapiens. Briefly: Cleavage of DNA at 180 uM in presence of cysteine.
Assay [4] is filed under the species Homo sapiens. Description: Cleavage of DNA at 180 uM.

Regarding `C[S+]([O-])c1ccccc1` (centres undefined), in the assay listed under Homo sapiens [1], the result was Active.

Regarding `[O-][S+](c1ccccc1)c1ccccc1`, the result in the assay filed under Homo sapiens [2] and in the assay filed under Homo sapiens [3] was inactive. For the same molecule, the result in the assay filed under Homo sapiens [4] was Active.
